Measurements taken from PubChem BioAssay AID1259321 (Sanford-Burnham Center for Chemical Genomics, 2017).
Values joined by “and” are separate entries in the source; they are usually repeats but may differ in a detail not shown here. Equal entries are not always repeated. Active and inactive are the calls of the source.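 The calls were made as follows: active = half-maximal concentration for changing protein binding to DNA, from the fitted dose curve, below 10 micromolar; inactive = the rest.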

The molecules below were run against Nuclear receptor subfamily 1 group D member 1 (Homo sapiens) (UniProt P20393) (assay: modulators of Rev-erb alpha DNA binding, dose response, biochemical, FITC-DNA, fluorescence polarization (AID 1259321)).
Chain of Nuclear receptor subfamily 1 group D member 1 (Homo sapiens) (P20393 whole entry, looked up): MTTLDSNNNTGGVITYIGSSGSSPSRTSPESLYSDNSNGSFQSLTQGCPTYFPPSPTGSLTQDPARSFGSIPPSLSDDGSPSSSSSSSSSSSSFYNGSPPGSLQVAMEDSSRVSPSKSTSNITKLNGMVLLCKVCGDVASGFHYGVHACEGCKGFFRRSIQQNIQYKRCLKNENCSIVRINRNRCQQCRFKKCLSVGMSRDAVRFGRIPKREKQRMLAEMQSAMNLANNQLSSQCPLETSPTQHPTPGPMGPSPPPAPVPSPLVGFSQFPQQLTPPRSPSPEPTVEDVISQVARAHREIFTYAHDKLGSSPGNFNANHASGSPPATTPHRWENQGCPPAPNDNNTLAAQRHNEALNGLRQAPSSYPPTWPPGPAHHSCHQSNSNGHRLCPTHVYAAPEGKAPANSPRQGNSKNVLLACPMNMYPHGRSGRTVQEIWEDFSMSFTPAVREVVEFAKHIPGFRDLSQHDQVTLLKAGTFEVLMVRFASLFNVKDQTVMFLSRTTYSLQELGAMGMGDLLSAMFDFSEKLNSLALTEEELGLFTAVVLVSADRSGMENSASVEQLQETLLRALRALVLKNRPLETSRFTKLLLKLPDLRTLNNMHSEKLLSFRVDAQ

Structure (SMILES) | IC50
CCCn1c(N)c(C(=O)CSc2nc(C)nc3sc(C)c(C)c23)c(=O)[nH]c1=O | > 40 µM (inactive)
CCCCNc1ccc2c3c(cccc13)C(=O)N(CCCC)C2=O | 2.78 µM
CCn1cc(C(=O)NCCc2ccccc2C)c(=O)c2ccc(C)nc21 | 1.16 µM
O=C(O)CSc1c2ccccc2cc2ccccc12 | > 40 µM (inactive)
Cc1ccc2[nH]c(C)c(/C=C/c3cc[n+](C)cc3)c2c1 | 8.6 µM
Cc1cc(N2CCCC2)ccc1/C=C1\NC(=S)N(C)C1=O | inactive
COc1ccc(-c2c(C#N)c(SCC(N)=O)nc3c2CCCC3)cc1 | 3.93 µM
CCOC(=O)c1c(-c2ccccc2)csc1NC(=O)c1cc(S(=O)(=O)N2CCOCC2)ccc1C | 4.51 µM
Cc1cc(-c2csc3nc[nH]c(=S)c23)cc(C)c1C | 5.33 µM
COc1ccc2[nH]c(C(=O)Nc3ccc(F)cc3Br)cc2c1 | > 40 µM (inactive)
Cc1c(-c2ccc(Cl)cc2)oc(=O)c2c(N)n(-c3ccccc3)nc12 | 3.98 µM
C=CCc1cccc(C2Nc3ccccc3C(=O)N2O)c1O (stereo unspecified) | 7.11 µM
Cc1ccc(-c2nnc(NCc3nc4ccccc4[nH]3)c3ccccc23)cc1S(=O)(=O)N(C)C | inactive
COc1ccccc1NC(=O)c1sc(NC(=O)c2ccco2)c(C#N)c1C | 3.15 µM
Nc1nc(-c2cccs2)c(-c2cccs2)s1 | 1.43 µM
COc1cccc(NC(=O)CSc2nc3ncc(Br)cc3[nH]2)c1 | 1.3 µM
CCc1ccc(-c2cc(C(F)(F)F)n3nc(C(=O)Nc4c(C)nn(Cc5ccccc5Cl)c4C)cc3n2)s1 | inactive
CC(=O)Oc1c(/C=C(\C#N)C(N)=O)[nH]c2ccccc12 | 2.18 µM
COc1cc(OC)cc(-c2c(Sc3ccccc3)c3cc(-c4ccc(SC)cc4)ccc3n2C)c1 | 5.97 µM
Cc1nc(SCC(=O)NCCc2ccccc2)c2oc3ccccc3c2n1 | 4.25 µM
CC(=O)OCC1OC(n2c(-c3ccc(Cl)cc3)ccc(C#N)c2=S)C(OC(C)=O)C(OC(C)=O)C1OC(C)=O (stereo unspecified) | inactive
Cc1ccccc1OCC(=O)Nc1cccc2nsnc12 | 4.7 µM

Structure (SMILES) | IC50
CCOc1ccc2nc(N=Nc3c(O)[nH]c(=S)[nH]c3=O)sc2c1 | > 40 µM (inactive)
COc1ccc(C(=O)c2c[nH]c(C(=O)NCc3cccs3)c2)cc1 | > 40 µM (inactive)
CCN1/C(=C\c2ccc3ccccc3[n+]2CC)Sc2cc(C)ccc21 | 2.67 µM
Cc1cc2cc3c(=O)[nH]c(=O)[nH]c3nc2cc1C | 3.34 µM
COc1cccc(OC)c1-c1nn2c(-c3cc(-c4ccccc4)n[nH]3)nnc2s1 | inactive
CCc1cc2ccc(OC)cc2nc1SCC(=O)Nc1cc(C)on1 | > 40 µM (inactive)
Cc1cc(C)c2cc(C#N)c(SCC(=O)NCC3CCCO3)nc2c1 (stereo unspecified) | 3.95 µM
Cc1cccc(N2C(=O)c3cccc4c(N)ccc(c34)C2=O)c1 | 6.19 µM
Cc1sc2nc(N3CCOCC3)[nH]c(=O)c2c1-c1ccccc1 | 7.66 µM
OCC[n+]1ccc(/C=C/c2c[nH]c3ccccc23)cc1 | > 40 µM (inactive)
CCc1nnc(NS(=O)(=O)c2ccc(Nc3ccc([N+](=O)[O-])c4nonc34)cc2)s1 | 9.46 µM
COC(=O)c1ccccc1NC(=O)C1=CC(c2cccs2)=NS(=O)(=O)N1C | 1.14 µM
COc1ccc(CNC(=O)CCCn2c(=S)[nH]c3cc4c(cc3c2=O)OCO4)cc1 | 6.11 µM
C=CCNc1nc(NCc2ccc(NC(C)=O)cc2)c2sc(-c3ccccc3)cc2n1 | 5.43 µM
CCc1nnc(NC(=O)c2oc3ccc(Br)cc3c2C)s1 | 6.22 µM
COC(=O)c1ccc2nc(Nc3nc4c(F)cc(F)cc4s3)sc2c1 | 2.14 µM
O=c1c2ccccc2ncn1-c1ccc(Cl)c(Cl)c1 | > 40 µM (inactive)
COc1ccc2cc(C)c(SCC(=O)Nc3cc(C)on3)nc2c1 | > 40 µM (inactive)
O=C(Nc1ccc2c(c1)C(=O)NC2=O)c1cc(Cl)ccc1Cl | inactive
CCN1/C(=C/c2ccc3cc(C)ccc3[n+]2CC)Sc2ccccc21 | > 40 µM (inactive)
CCN(CC)c1ccc2cc(C(=O)NCc3ccc(F)cc3)c(=N)oc2c1 | inactive
COc1cc(OC)cc(-n2c3nc4ccccc4nc3c3c(=O)n(CC4CCCO4)cnc32)c1 (stereo unspecified) | 4.12 µM

Structure (SMILES) | IC50
CCN(CC)C(=O)CSc1nc(N)c(C#N)c(-c2cccs2)c1C#N | 8.24 µM
CCc1cc2c(C)ccc(C)c2nc1SCC(=O)Nc1c[nH]c(=O)[nH]c1=O | inactive
CC(=O)c1ccc(NC(=O)COC(=O)c2ccccc2Sc2ccccc2C#N)cc1 | > 40 µM (inactive)
Fc1ccc2nc(Nc3nc4cc5c(cc4s3)OCCO5)sc2c1 | 6.87 µM
COC(=O)c1cccc(Cn2ccc3ccc(-c4ccc5ccn(C(=O)C6CCCCC6)c5c4)cc32)c1 | 7.14 µM
Cc1cc(NC(=O)c2cccs2)cc(-c2nc3ncccc3o2)c1O | inactive
COc1ccc(CCNC(=O)CSc2nc(-c3ccc(OC)c(OC)c3)ccc2C#N)cc1 | inactive
CC1(C)Cc2c(c(N3CCCC3)nc3sc(C(=O)Nc4ccccc4)c(N)c23)CO1 | 3.37 µM
N=C1C(c2nc3ccccc3s2)=C(O)CN1NC(=O)c1c[nH]c2ccccc12 | 4.45 µM
Brc1ccc2ncc(Br)cc2c1 | 4.22 µM
Cc1ccc(C(=O)Nc2cccc(C(F)(F)F)c2)cc1NC(=O)c1nccn1C | 6.88 µM
COC(=O)c1cccc(Cn2ccc3ccc(-c4ccc5ccn(C(=O)c6ccccc6C)c5c4)cc32)c1 | 2.94 µM
Cc1cc(NC(=O)CSc2nc3cc(C)c(C)cc3cc2C)no1 | > 40 µM (inactive)
CN1C(=O)c2cc(NC(=O)Nc3ccccc3F)ccc2OC[C@H]2O[C@@H](CC(=O)NCc3ccc(-c4ccccc4)cc3)CC[C@@H]21 | 3.55 µM
Cc1ccc(-c2cc(C(F)F)nc3sc4c(=O)[nH]cnc4c23)cc1 | 6.05 µM
CCc1nc(SCC(=O)NCc2ccco2)c2c3c(sc2n1)CCCC3 | inactive
Cc1cc(C)c(NC(=O)COc2ccccc2C(=O)Nc2ccc3c(c2)oc2ccccc23)c(C)c1 | > 40 µM (inactive)
CCN1C(=O)c2cccc3c(N)ccc(c23)C1=O | > 40 µM (inactive)
CCOC(=O)C1CCCN(c2ccc([N+](=O)[O-])c3nonc23)C1 (stereo unspecified) | > 40 µM (inactive)
O=C(CSc1nnnn1-c1ccc2c(c1)OCCO2)c1cccc2c1OCCO2 | 2.98 µM
O=[N+]([O-])c1ccc(O)c(-c2cc(C(F)(F)F)nc(-c3ccccc3)n2)c1 | > 40 µM (inactive)
COc1ccc(C(=O)Nc2ccccc2-c2nnn(CC(N)=O)n2)cc1 | inactive

Structure (SMILES) | IC50
C=CCn1c(=NC(=O)c2cccs2)sc2cc(NC(C)=O)ccc21 | inactive
C/C=C(/C(=C/C)c1ccc(O)cc1)c1ccc(O)cc1 | > 40 µM (inactive)
CCN(CC)c1ccc2cc(C=O)c(=O)oc2c1 | > 40 µM (inactive)
COc1ccc(C(=O)Nc2nnc(Cc3ccccc3)s2)c(OC)c1 | inactive
COc1cccc(-n2c([S-])c(C(=O)Nc3ccc(S(=O)(=O)N4CCOCC4)cc3)[n+]3cc(C(N)=O)ccc23)c1 | > 40 µM (inactive)
COc1ccc(-c2ccc(-c3noc(-c4ccccc4F)n3)c(OC)n2)cc1 | 1.33 µM
O=C(CSc1ncnc2c1sc1ccccc12)Nc1ccc(Br)cc1 | 2.97 µM
CCOC(=O)/C(=C\C=C1/Sc2cc(OCC)c(OCC)cc2N1CC)C(C)=O | 5.55 µM
Fc1ccc(CSc2ncnc3c2oc2ccccc23)cc1 | 6.81 µM
C[n+]1cc(C(=O)N2CCCCC2)ccc1/C=C/c1c[nH]c2ccccc12 | 9.3 µM
COc1nc(-c2ccc(Cl)cc2)ccc1-c1noc(-c2cccs2)n1 | inactive
CCOC(=O)c1ccc2nc(Nc3nc4ccc(F)cc4s3)sc2c1 | 7.02 µM
CCC(C)(C)c1ccc(OCCCC[n+]2cccc(C)c2)c(C(C)(C)CC)c1 | 4.39 µM
CCOc1ccc(CC(=O)Nc2sc(Cc3ccccc3)cc2C(N)=O)cc1OCC | > 40 µM (inactive)
COc1ccc(Cc2nc3ccccc3n2CC(=O)N/N=C/c2ccc(C)cc2O)cc1OC | 5.85 µM
CC1CC1C(=O)Nc1nc(-c2cccs2)c(-c2cccs2)s1 (stereo unspecified) | 5.22 µM
CCN(CC)c1ccc(/C=C(\C#N)C(=O)c2ccc(Br)cc2)cc1 | inactive
Brc1ccc(Sc2cnc3ccccc3n2)cc1 | inactive
CCOc1ccc2cc(C#N)c(SCC(=O)OC)nc2c1 | 3.74 µM
COc1cc(C(=O)NCc2ccc(-c3nc4ccccc4s3)cc2)cc(OC)c1OC | > 40 µM (inactive)
CCN1/C(=C/C=C/c2oc3ccc(-c4ccccc4)cc3[n+]2CC)Oc2ccc(-c3ccccc3)cc21 | > 40 µM (inactive)
COc1ccc(-c2cc(-c3ccc(OC)cc3)c(C#N)c(SC)n2)cc1 | 8.29 µM

Structure (SMILES) | IC50
Cc1cc(C)cc(NC(=S)/C(=C(\[O-])c2ccc(Cl)cc2Cl)[n+]2ccc(C(C)(C)C)cc2)c1 | > 40 µM (inactive)
Cc1nc2cc(NC(=O)CSc3nc4c(C)cccc4cc3C#N)ccc2s1 | 5.93 µM
C[n+]1c2cc(N)ccc2cc2ccc(N)cc21 | 2.68 µM and 8.02 µM
COc1ccc(C(C)=O)cc1CSc1nc2ccccc2c(=O)n1-c1ccccc1 | > 40 µM (inactive)
COC(=O)c1ccc(NC(=O)c2ccc3c(c2)C(=O)N(C)C3=O)cc1 | 4.43 µM
C[n+]1ccc(/C=C/c2c[nH]c3ccc(F)cc23)cc1 | > 40 µM (inactive)
COC(=O)c1cc2cc(Cl)ccc2nc1SC | 2.53 µM
COc1ccc2c(c1)oc(=O)c1c3ccccc3[nH]c21 | > 40 µM (inactive)
COc1ccc(-c2ccc3sc4ccccc4c(=O)c3c2)cn1 | 3.24 µM
O=[N+]([O-])c1cc(-c2cnc3ccccc3n2)ccc1Cl | 3.68 µM
Cc1cc(-c2cccc([N+](=O)[O-])c2)nc2ccc3ccccc3c12 | 3 µM
CCCCCOc1ccc(NC(=O)CSc2cccc3cccnc23)cc1 | 0.678 µM
CCCCOc1ccc(N(CC(=O)NC2CCCCC2)C(=O)c2snc(C(N)=O)c2N)cc1 | > 40 µM (inactive)
CCOC(=O)c1nn(-c2ccc(F)cc2)c(=O)cc1OCC(=O)Nc1ccc(F)c(F)c1 | > 40 µM (inactive)
CCc1ccc2n(-c3ccc(OC)cc3)c([S-])c(C(=O)Nc3cc(C)cc(C)c3)[n+]2c1 | 2.71 µM
CCc1nnc(NC(=O)CSc2nc3cc4c(cc3cc2CC)OCCO4)s1 | 3.66 µM
Cc1ccc(S(=O)(=O)c2nc(Nc3ccccc3C#N)sc2Cl)cc1 | inactive
CCN1/C(=C/c2ccc3cccc(C)c3[n+]2CC)Sc2ccccc21 | 2.04 µM
